Results on 23 molecules are retold here after patent US10058534B2, “Benzothiophene derivatives and compositions thereof as selective estrogen receptor degraders” (NOVARTIS AG, priority 2013, dated 2018).

For test [1], the target named is ER (endogenous, MCF7 cells) (Homo sapiens (Human), UniProt P03372). Briefly: ER transcription assay (MCF7 cells), ERE-luciferase reporter. The following applies: inflection point of the inhibition of transcription in MCF7 cells; 0.1 nM estradiol, 24 hours; read-out: MCF7 IC50. The format is cell-based. From the text: ER Transcription Assay (MCF7 Cells)
The ER transcription assay is a reporter assay that is based on the ability of ER to induce transcription from a luciferase reporter gene containing estrogen response elements (EREs) in the promoter/enhancer region. When the reporter gene is transfected in MCF7 cells (containing endogenous ER), transcription is reflected by the level of luciferase expression.
A day before transfection, cells are split into a T75 flask at a cell density of 300,000 cells/mL (10 mL total) and allowed to attach overnight in a humidified CO2 incubator at 37° C.
Approximately 20 ug DNA is mixed in OptiMEM (Invitrogen) to a total volume of 650 μL. Following incubation, the OptiMEM-DNA mixture is added to the OptiMEM-Lipofectin mix and incubated for 15 minutes at 37° C. The DNA-Lipofectin mixture is then added directly to the T75 flask and the flask is returned to the incubator.
Normally, DMSO (used as a vehicle) is included to achieve a final concentration of 0.1% when added to the cells. Transfected cells are trypsinized, resuspended in DMEM/F12/10% charcoal-stripped serum and added to the 96-well plate at 25,000 cells/well in 90 μL of media. The plate is then returned to the incubator for 24 hours.
After incubation with compounds for 24 hours, Firefly and Renilla luciferase activities are measured to determine ER transcriptional activity. Media is removed from 96-well plates by decanting and blotting on paper towels.
One second total read time after a one second delay.
One second total read time after one second delay. If Firefly luciferase signal is high, Renilla assay must be done an hour after the Firefly assay due to incomplete squelching of Firefly signal.
(§1) The column titled MCF7 IC50 reports the inflection point of the inhibition of transcription in MCF7 cells as described above. Percentage ERα remaining reports the remaining ERα protein measured at 10 μM concentration of the ligand as described above. The column ERα IC50 reports the inflection point of the degradation in response to the ligand concentration.
For orientation: Reporter assays use an easily measured gene product as a stand-in for the process of interest.

The target in test [2] is ERα (Homo sapiens (Human), UniProt P03372). Briefly: ERα degradation (MCF7 cells), in-cell Western. The settings on record: MCF7 cells; for % ERα remaining: remaining ERα protein at 10 μM ligand, relative to DMSO control; for IC50: inflection point of the degradation in response to ligand concentration. The format is cell-based. The protocol:
ERα Degradation (MCF7 Cells)
as §1

Chain of ER (endogenous, MCF7 cells) (P03372 whole entry): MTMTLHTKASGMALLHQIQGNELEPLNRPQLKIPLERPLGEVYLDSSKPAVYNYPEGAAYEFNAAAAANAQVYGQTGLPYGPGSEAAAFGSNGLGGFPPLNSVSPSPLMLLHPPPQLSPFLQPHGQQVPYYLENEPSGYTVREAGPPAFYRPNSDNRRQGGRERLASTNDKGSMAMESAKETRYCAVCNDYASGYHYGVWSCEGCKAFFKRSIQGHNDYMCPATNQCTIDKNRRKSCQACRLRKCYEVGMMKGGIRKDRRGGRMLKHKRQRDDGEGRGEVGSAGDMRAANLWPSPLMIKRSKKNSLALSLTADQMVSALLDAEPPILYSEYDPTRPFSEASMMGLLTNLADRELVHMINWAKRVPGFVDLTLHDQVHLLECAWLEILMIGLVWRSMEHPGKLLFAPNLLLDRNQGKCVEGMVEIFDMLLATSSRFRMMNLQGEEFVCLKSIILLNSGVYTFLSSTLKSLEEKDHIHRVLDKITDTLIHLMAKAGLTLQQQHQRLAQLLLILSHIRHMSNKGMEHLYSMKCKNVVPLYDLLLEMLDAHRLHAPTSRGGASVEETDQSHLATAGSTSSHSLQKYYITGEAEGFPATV
Chain of ERα (P03372 whole entry): as above

The term IC50 denotes the concentration that inhibits the measured activity by half. Take `O=C(O)/C=C/c1ccc(Oc2c(-c3ccccc3CN3CCCC3)sc3cc(O)ccc23)cc1` [Example 92, (E)-3-(4-((6-hydroxy-2-(2-(pyrrolidin-1-ylmethyl)phenyl)benzo [b]thiophen-3-yl)oxy)phenyl)acrylic acid]: the half-inhibitory concentration (IC50) in test [1] was found to be 29 nM. In addition, in test [2], the “% ERα remaining” value is reported as 16%.

With `CC(C)c1ccccc1-c1sc2cc(O)ccc2c1Oc1ccc(CCC(=O)O)cc1` [Example 93, 3-(4-((6-hydroxy-2-(2-isopropylphenyl)benzo [b]thiophen-3-yl)oxy)phenyl)propanoic acid], the half-inhibitory concentration (IC50) in test [1] came to 72 nM; in test [2] it was 1.6 nM. Also, in test [2], the “% ERα remaining” value is listed as 25%.

On to `N#CCc1ccccc1-c1sc2cc(O)ccc2c1Oc1ccc(/C=C/C(=O)O)cc1` [Example 94, (E)-3-(4-((2-(2-(cyanomethyl)phenyl)-6-hydroxybenzo[b]thiophen-3-yl)oxy)phenyl)acrylic acid], for which, in test [1], the IC50 is 86 nM. Moreover, in test [2], the “% ERα remaining” value was found to be 20%.

Take `Cn1nnc(Cc2ccccc2-c2sc3cc(O)ccc3c2Oc2ccc(/C=C/C(=O)O)cc2)n1` [Example 96, (E)-3-(4-((6-hydroxy-2-(2-((2-methyl-2H-tetrazol-5-yl)methyl)phenyl)benzo [b]thiophen-3-yl)oxy)phenyl)acrylic acid]: in test [1], the IC50 was 212 nM. In addition, in test [2], inhibition was half-maximal at 1.7 nM (IC50) and the “% ERα remaining” value worked out at 14%.

Consider `O=C(O)/C=C/c1ccc(Oc2c(-c3ccccc3CN3CCC3)sc3cc(O)ccc23)cc1` [Example 97, (E)-3-(4-((2-(2-(azetidin-1-ylmethyl)phenyl)-6-hydroxybenzo[b]thiophen-3-yl)oxy)phenyl)acrylic acid], for which the half-maximal inhibitory concentration (IC50) in test [1] amounted to 292 nM. In addition, in test [2], the midpoint of inhibition, the IC50, lay at 25 nM and the “% ERα remaining” value is listed as 18%.

Turning to `CC(C)c1cccc(-c2sc3cc(O)ccc3c2Oc2ccc(/C=C/C(=O)O)cc2)c1` [Example 98, (E)-3-(4-((6-hydroxy-2-(3-isopropylphenyl)benzo[b]thiophen-3-yl)oxy)phenyl)acrylic acid], in test [1], the half-maximal inhibitory concentration (IC50) amounted to 382 nM. Besides, in test [2], the 50% inhibitory concentration (IC50) turned out to be 6.6 nM and the “% ERα remaining” value is listed as 19%.

In the case of `O=C(O)/C=C/c1ccc(Oc2c(-c3ccc(F)cc3CN3CCCC3=O)sc3cc(O)ccc23)cc1` [Example 99, (E)-3-(4-((2-(4-fluoro-2-((2-oxopyrrolidin-1-yl)methyl)phenyl)-6-hydroxybenzo[b]thiophen-3-yl)oxy)phenyl)acrylic acid], the half-maximal inhibitory concentration (IC50) in test [1] was found to be 544 nM. The “% ERα remaining” value in test [2] is 14%.

As to `Cc1ncccc1-c1sc2cc(O)ccc2c1Oc1ccc(/C=C/C(=O)O)cc1` [Example 100, (E)-3-(4-((6-hydroxy-2-(2-methylpyridin-3-yl)benzo[b]thiophen-3-yl)oxy)phenyl)acrylic acid], the IC50 in test [1] worked out at 669 nM; in test [2] it was 5.4 nM. Besides, in test [2], the “% ERα remaining” value worked out at 12%.

`CC(C)c1ccccc1-c1sc2c(F)c(O)ccc2c1Oc1ccc(/C=C/C(=O)O)cc1` [Example 101, (E)-3-(4-((7-fluoro-6-hydroxy-2-(2-isopropylphenyl)benzo [b]thiophen-3-yl)oxy)phenyl)acrylic acid]: the IC50 in test [1] is 4.2 nM. In test [2], the IC50 was 0.2 nM and the “% ERα remaining” value was determined as 18%.

In the case of `CCCc1nnc(/C=C/c2ccc(Oc3c(-c4ccccc4C(C)C)sc4cc(O)ccc34)cc2)o1` [Example 103, (E)-2-(2-isopropylphenyl)-3-(4-(2-(5-propyl-1,3,4-oxadiazol-2-yl)vinyl)phenoxy)benzo [b]thiophen-6-ol], the IC50 in test [1] came to 12 nM. In test [2], the IC50 worked out at 3.3 nM and the “% ERα remaining” value worked out at 31%.

For `CC(C)c1ccccc1-c1sc2cc(O)ccc2c1Oc1ccc(/C=C/c2nnc(C3CC3)o2)cc1` [Example 104, (E)-3-(4-(2-(5-cyclopropyl-1,3,4-oxadiazol-2-yl)vinyl)phenoxy)-2-(2-isopropylphenyl)benzo [b]thiophen-6-ol], the IC50 in test [1] came out at 32 nM. Also, the “% ERα remaining” value in test [2] came out at 29%.

As to `Cc1nnc(/C=C/c2ccc(Oc3c(-c4ccccc4C(C)C)sc4cc(O)ccc34)cc2)[nH]1` [Example 105, (E)-2-(2-isopropylphenyl)-3-(4-(2-(5-methyl-4H-1,2,4-triazol-3-yl)vinyl)phenoxy)benzo [b]thiophen-6-ol], the figures for the IC50 in test [1] and in test [2] were 14 nM and 1.1 nM, respectively. Also, the “% ERα remaining” value in test [2] is given as 25%.

`CCCc1nnc(/C=C/c2ccc(Oc3c(-c4ccccc4C(C)C)sc4cc(O)ccc34)cc2)[nH]1` [Example 107, (E)-2-(2-isopropylphenyl)-3-(4-(2-(5-propyl-4H-1,2,4-triazol-3-yl)vinyl)phenoxy)benzo [b]thiophen-6-ol]: the 50% inhibitory concentration (IC50) in test [1] turned out to be 66 nM. In test [2], the half-inhibitory concentration (IC50) was 4 nM and the “% ERα remaining” value is on record as 29%.

In the case of `O=C(O)/C=C/c1ccc(Oc2c(-c3ccccc3CC(F)(F)F)sc3cc(O)ccc23)cc1` [Example 109, (E)-3-(4-((6-hydroxy-2-(2-(2,2,2-trifluoroethyl)phenyl)benzo[b]thiophen-3-yl)oxy)phenyl)acrylic acid], the half-inhibitory concentration (IC50) in test [1] is 12 nM. Moreover, in test [2], 0.2 nM corresponded to half-maximal inhibition (IC50) and the “% ERα remaining” value is reported as 16%.

On to `CC(F)c1ccccc1-c1sc2cc(O)ccc2c1Oc1ccc(/C=C/C(=O)O)cc1` (stereo not drawn) [Example 111, (E)-3-(4-((2-(2-(1-fluoroethyl)phenyl)-6-hydroxybenzo[b]thiophen-3-yl)oxy)phenyl)acrylic acid], for which the IC50 in test [1] is 25 nM. Besides, in test [2], 0.3 nM corresponded to half-maximal inhibition (IC50) and the “% ERα remaining” value was 17%.

In the case of `CC/C(=C\c1ccc(Oc2c(-c3ccccc3C(C)C)sc3cc(O)ccc23)cc1)C(=O)O` [Example 113, (E)-2-(4-((6-hydroxy-2-(2-isopropylphenyl)benzo [b]thiophen-3-yl)oxy)benzylidene) butanoic acid], in test [1], the half-maximal inhibitory concentration (IC50) was determined as 62 nM. Besides, in test [2], 2.2 nM corresponded to half-maximal inhibition (IC50) and the “% ERα remaining” value turned out to be 24%.

Consider `CC/C(=C\c1ccc(Oc2c(-c3ccc(O)cc3)sc3cc(O)ccc23)cc1)C(=O)O` [Example 114, (E)-2-(4-((6-hydroxy-2-(4-hydroxyphenyl)benzo [b]thiophen-3-yl)oxy)benzylidene) butanoic acid], for which, in test [1], the IC50 turned out to be 216 nM. In test [2], the IC50 came out at 6.4 nM and the “% ERα remaining” value was determined as 35%.

As for `CC(C)c1ncoc1-c1sc2cc(O)ccc2c1Oc1ccc(/C=C/C(=O)O)cc1` [Example 115, (E)-3-(4-((6-hydroxy-2-(4-isopropyloxazol-5-yl)benzo[b]thiophen-3-yl)oxy)phenyl)acrylic acid], the 50% inhibitory concentration (IC50) in test [1] was determined as 267 nM. Also, in test [2], 5.3 nM corresponded to half-maximal inhibition (IC50) and the “% ERα remaining” value was found to be 15%.

As for `C[C@@H](O)c1ccccc1-c1sc2cc(O)ccc2c1Oc1ccc(/C=C/C(=O)O)cc1` [Example 116, (R,E)-3-(4-((6-hydroxy-2-(2-(1-hydroxyethyl)phenyl)benzo[b]thiophen-3-yl)oxy)phenyl)acrylic acid], the concentration for half-maximal inhibition (IC50) in test [1] worked out at 306 nM. In test [2], the half-maximal inhibitory concentration (IC50) is 12 nM and the “% ERα remaining” value was 24%.

As for `CC(C)c1ccccc1-c1sc2cc(O)ccc2c1Oc1ccc(/C=C/C(=O)O)nc1` [Example 117, (E)-3-(5-((6-hydroxy-2-(2-isopropylphenyl)benzo [b]thiophen-3-yl)oxy)pyridin-2-yl)acrylic acid], the half-inhibitory concentration (IC50) in test [1] is 54 nM. Moreover, the “% ERα remaining” value in test [2] is reported as 16%.

Consider `CC(C)c1ccccc1-c1sc2cc(O)ccc2c1Nc1ccc(/C=C/C(=O)O)cc1` [Example 118, (E)-3-(4-((6-hydroxy-2-(2-isopropylphenyl)benzo [b]thiophen-3-yl)amino)phenyl)acrylic acid], for which, in test [1], the IC50 came out at 68 nM. Moreover, in test [2], half-maximal inhibition (IC50) required 2.8 nM and the “% ERα remaining” value was found to be 14%.

For `CC(C)c1ccccc1-c1sc2cc(O)ccc2c1N(C)c1ccc(/C=C/C(=O)O)cc1` [Example 119, (E)-3-(4-((6-hydroxy-2-(2-isopropylphenyl)benzo [b]thiophen-3-yl)(methyl)amino)phenyl) acrylic acid], the IC50 in test [1] amounted to 109 nM. In test [2], the IC50 was found to be 6.2 nM and the “% ERα remaining” value is reported as 19%.

`CC(=O)/C=C/c1ccc(Oc2c(-c3ccc(F)cc3C(F)(F)F)sc3cc(O)ccc23)cc1` [Example 120, (E)-4-(4-((2-(4-fluoro-2-(trifluoromethyl)phenyl)-6-hydroxybenzo[b]thiophen-3-yl)oxy)phenyl)but-3-en-2-one]: the half-maximal inhibitory concentration (IC50) in test [1] worked out at 5.1 nM. In test [2], the “% ERα remaining” value stood at 70%.
